Values after ≈ are worked out from the molar mass of the structure shown. Like-named read-outs stand apart in the source and are kept apart here.
Assays:
[1] = system: Staphylococcus aureus ATCC 21027; test: Antimicrobial assay, growth inhibition (optical density); format: cell-based; conditions: Staphylococcus aureus, ATCC21027; S. aureus; read-out: total inhibition (MIC100) of growth
Method: (§1) The Gram-positive bacterial Staphylococcus aureus ATCC 21027, Gram-negative bacterial Escherichia coli VKPM (B-7935), and yeast-like fungal Candida albicans KMM 455 strains were fermented on solid medium Mueller Hinton broth with agar (16.0 g/L) in a Petri dish at 37 °C for 24 h. The antimicrobial activity of the compound was tested at concentrations ranging from 100 µM and lower. The effect of the compound on bacterial growth was estimated as described by. Gentamicin and amphotericin B were used as positive controls against S. aureus, E. coli, and C. albicans, and a 1% dimethyl sulfoxide (DMSO) solution in PBS was used as a negative control. The optical density of the bacterial suspension after 18 h was measured at λ = 620 nm. The effect of the compound on biofilm formation for 18 h was tested using MTT reagent (Sigma-Aldrich, St. Louis, MO, USA) in accordance with. The optical density of the obtained solution was measured at λ = 570 nm. A Multiskan FS spectrophotometer (Thermo Scientific Inc., Beverly, MA, USA) was used for both assays. The results were calculated as percentages of the control data and presented as minimal concentrations reduced by 50% of growth or biofilm formation (MIC50).

[2] = system: Escherichia coli VKPM (B-7935); test: as above; format: cell-based; conditions: Escherichia coli; E. coli; read-out: total inhibition (MIC100) of growth
Method: as §1

Candida albicans KMM 455 [3] = test: as above; format: cell-based; conditions: Candida albicans, C. albicans
Method: as §1

E. coli = system: E. coli; set-up: method as in PMID 28498358; conditions: cited from earlier work
[4] = system: Staphylococcus aureus ATCC 21027; test: Biofilm formation assay (MTT); format: cell-based; conditions: S. aureus
Method: as §1

[5] = system: Escherichia coli VKPM (B-7935); test: Biofilm formation assay (MTT); format: cell-based; conditions: E. coli
Method: as §1

Candida albicans KMM 455 [6] = test: Biofilm formation assay (MTT); format: cell-based; conditions: C. albicans
Method: as §1

H9c2 cardiomyocytes = test: Cell viability assay (MTT); format: cell-based, rat
Description: (§2) Rat cardiomyocyte H9c2 cells were kindly provided by Prof. Dr. Gunhild von Amsberg from the Martini-Klinik Prostate Cancer Center, University Hospital Hamburg-Eppendorf, Hamburg, Germany. The human HaCaT keratinocyte cell line was kindly provided by Prof. N. Fusenig (Cancer Research Centre, Heidelberg, Germany). Non-cancerous human breast epithelial MCF-10A cells were kindly provided by Dr. Irina Zhitnyak (N. N. Blokhin National Medical Research Center of Oncology, Moscow, Russia). Human breast cancer MCF-7 HTB-22 and MDA-MB-231 cells were obtained from the ATTC (Manassas, VA, USA).
(§3) H9c2 and HaCaT cells were cultured in DMEM with 10% fetal bovine serum and 1% penicillin/streptomycin (BioloT, St. Petersburg, Russia). MCF-7 and MDA-MB-231 cells were cultured in MEM (BioloT, St. Petersburg, Russia) with 10% fetal bovine serum (FBS) and 1% penicillin/streptomycin (BioloT, St. Petersburg, Russia). MCF 10A cells were cultured in DMEM F12 medium (BioloT, St. Petersburg, Russia) supplemented with 20% FBS, 20 ng/mL hrEGF (Sci-Store, Moscow, Russia), and 1% penicillin/streptomycin (BioloT, St. Petersburg, Russia). All cells were cultured at 37 °C in a humidified atmosphere containing 5% CO2.
(§4) H9c2 cells were seeded at a concentration of 3 × 10^3 cells/well. MCF-10A, MCF-7, and MDA-MB-231 cells were seeded at 5 × 10^3 cells/well, and HaCaT cells were seeded at 1 × 10^4 cells/well. The experiments were initiated after 24 h.
(§5) Compounds at concentrations up to 100 µM were added to the wells for 24h or 48 h, and the viability of the cells was measured using an MTT (3-(4,5-dimethylthiazol-2-yl)-2,5-diphenyltetrazolium bromide) assay, which was performed according to the manufacturer’s instructions (Sigma-Aldrich, Munich, Germany). […] DMSO was used as a control. The results are presented as percentages of the control data.

[7] = Cell viability assay (MTT); format: cell-based, rat; conditions: rat, H9c2 cardiomyocytes, read-out: Cytotoxicity IC50
Description: as §2, §3, §4, §5

[8] = system: MCF-10A breast epithelial cells; test: Cell viability assay (MTT); format: cell-based, human; conditions: MCF10A
Description: as §2, §3, §4, §5

[9] = Cell viability assay (MTT); format: cell-based, human; conditions: human, read-out: Cytotoxicity IC50
Description: as §2, §3, §4, §5

[10] = system: MCF-7 breast cancer cells; test: Cell viability assay (MTT); format: cell-based, human
Description: as §2, §3, §4, §5

HaCaT keratinocytes = test: Cell viability assay (MTT); format: cell-based, human
Description: as §2, §3, §4, §5

[11] = system: MDA-MB-231 breast cancer cells; test: Cell viability assay (MTT); format: cell-based, human
Description: as §2, §3, §4, §5

C=C(C)C1CCC23C(O)CCC(C)C2(C)CCC(C)C3C1c1c[nH]c2ccccc12 (stereo not drawn) [Compound 5, 10,23-dihydro-24,25-dehydroaflavinine]
MIC [1]: 6.85 ± 0.53 µM (≈ 2.78 µg/mL)
MIC [2]: 12.4 ± 1.02 µM (≈ 5.05 µg/mL)
MIC50 (Candida albicans KMM 455 [3]; KMM455, 18 h, 18 h): 7 to 10 µM (≈ 2.84 to 4.06 µg/mL)
MIC (Candida albicans KMM 455 [3]; KMM455, read-out: total inhibition (MIC100) of growth): 11.5 ± 0.9 µM (≈ 4.66 µg/mL)
MIC50 (E. coli): 2.0 µg/mL (≈ 4.93 µM)
MIC100 of biofilm formation [4]: 10.45 ± 0.96 µM
MIC100 of biofilm formation [5]: 23.08 ± 2.00 µM
MIC100 of biofilm formation (Candida albicans KMM 455 [6]): 12.01 ± 1.01 µM
cell viability (H9c2 cardiomyocytes; H9c2, 24 h, 1.0 µM): 101.9 ± 2.9 % of control
cell viability (H9c2 cardiomyocytes; H9c2, 24 h, 10.0 µM): 50.5 ± 1.8 % of control
cell viability (H9c2 cardiomyocytes; H9c2, 24 h, 100.0 µM): 33.6 ± 0.3 % of control
cell viability (H9c2 cardiomyocytes; H9c2, 48 h, 1.0 µM): 105.6 ± 3.4 % of control
cell viability (H9c2 cardiomyocytes; H9c2, 48 h, 10.0 µM): 94.0 ± 3.0 % of control
cell viability (H9c2 cardiomyocytes; H9c2, 48 h, 100.0 µM): 10.1 ± 0.2 % of control
IC50 at 24 h ([7]; H9c2, 24 h): 9.8 ± 1.3 µM
IC50 at 48 h ([7]; H9c2, 48 h): 57.2 ± 3 µM
cell viability ([8]; 24 h, 1.0 µM): 101.7 ± 4.4 % of control
cell viability ([8]; 24 h, 10.0 µM): 95.4 ± 2.3 % of control
cell viability ([8]; 24 h, 100.0 µM): 16.1 ± 8.6 % of control
cell viability ([8]; 48 h, 1.0 µM): 92.0 ± 0.9 % of control
cell viability ([8]; 48 h, 10.0 µM): 93.9 ± 6.4 % of control
cell viability ([8]; 48 h, 100.0 µM): 9.9 ± 0.2 % of control
IC50 at 24 h ([9]; HaCaT keratinocytes, 24 h): 52.8 ± 1.1 µM
IC50 at 48 h ([9]; HaCaT keratinocytes, 48 h): 25.3 ± 0.8 µM
IC50 at 24 h ([9]; MCF-7 breast cancer cells, MCF-7, 24 h): 58.6 ± 4.2 µM
IC50 at 48 h ([9]; MCF-7 breast cancer cells, MCF-7, 48 h): 53.5 ± 1.1 µM
IC50 at 24 h ([9]; MCF-10A breast epithelial cells, MCF10A, 24 h): 61.5 ± 1.3 µM
IC50 at 48 h ([9]; MCF-10A breast epithelial cells, MCF10A, 48 h): 57.1 ± 2.8 µM
IC50 at 24 h ([9]; MDA-MB-231 breast cancer cells, MDA-MB-231, 24 h): 62.9 ± 3.1 µM
IC50 at 48 h ([9]; MDA-MB-231 breast cancer cells, MDA-MB-231, 48 h): 61.3 ± 2.1 µM
cell viability ([10]; MCF-7, 24 h, 1.0 µM): 100.5 ± 0.9 % of control
cell viability ([10]; MCF-7, 24 h, 10.0 µM): 97.0 ± 2.6 % of control
cell viability ([10]; MCF-7, 24 h, 100.0 µM): 10.0 ± 1.0 % of control
cell viability ([10]; MCF-7, 48 h, 1.0 µM): 78.5 ± 9.9 % of control
cell viability ([10]; MCF-7, 48 h, 10.0 µM): 81.6 ± 3.3 % of control
cell viability ([10]; MCF-7, 48 h, 100.0 µM): 21.2 ± 0.1 % of control
cell viability (HaCaT keratinocytes; 24 h, 1.0 µM): 92.3 ± 5.0 % of control
cell viability (HaCaT keratinocytes; 24 h, 10.0 µM): 88.3 ± 8.6 % of control
cell viability (HaCaT keratinocytes; 24 h, 100.0 µM): 7.8 ± 0.3 % of control
cell viability (HaCaT keratinocytes; 48 h, 1.0 µM): 72.2 ± 4.3 % of control
cell viability (HaCaT keratinocytes; 48 h, 10.0 µM): 56.8 ± 4.8 % of control
cell viability (HaCaT keratinocytes; 48 h, 100.0 µM): 16.8 ± 0.2 % of control
cell viability ([11]; MDA-MB-231, 24 h, 1.0 µM): 96.3 ± 7.5 % of control
cell viability ([11]; MDA-MB-231, 24 h, 10.0 µM): 91.3 ± 6.1 % of control
cell viability ([11]; MDA-MB-231, 24 h, 100.0 µM): 21.1 ± 0.9 % of control
cell viability ([11]; MDA-MB-231, 48 h, 1.0 µM): 103.2 ± 2.4 % of control
cell viability ([11]; MDA-MB-231, 48 h, 10.0 µM): 102.3 ± 4.1 % of control
cell viability ([11]; MDA-MB-231, 48 h, 100.0 µM): 10.6 ± 0.2 % of control

Reference: publication PMC12471299, “Secondary Metabolites of the Marine Sponge-Derived Fungus Aspergillus subramanianii 1901NT-1.40.2 and Their Antimicrobial and Anticancer Activities” (Marine Drugs, 2025)
